Reference: a melting point compilation (Tetko et al.; mined from patent text by program, amines drawn as free bases though some values may be those of a salt)

Row | SMILES | melting point
1 | CC(C)C[C@H]1[C@@H](O)C(=O)N1C(=O)OC(C)(C)C | 108 °C
2 | CN(C)c1ccc2c(c1)SC1=NCCN12 | 144 °C
3 | CC(C)c1cc(C(C)(C)CCP(=O)(O)O)cc(C(C)C)c1O | 179 to 182 °C
4 | CCOC(=O)c1cccc(-c2nc(-c3ccc(OCC)cc3)cs2)c1 | 108 to 110 °C
5 | Cc1ccc2c(c1)C=Cc1cc(C(C)C)ccc1C2c1cn(-c2ccnc(NCC(=O)Nc3nc(CC(=O)O)cs3)n2)c(=O)[nH]c1=O (stereo not drawn) | 215 to 220 °C
6 | NN1CC1c1ccccc1 (stereo not drawn) | 60 °C
7 | O=C(NC1CCN(C(=O)NCCC2(C(=O)NCC(F)(F)F)c3ccccc3-c3ccccc32)CC1)c1ccccc1 | 220 to 222 °C
8 | Cn1nc2ccccc2c1C(=O)NC1CCN(Cc2ccccc2)CC1 | 167 to 169 °C
9 | Cc1c(C#N)sc2nc(-c3ccccc3)nc(N3CCNCC3)c12 | 251 to 253 °C
10 | Cn1nc(-c2ccc(OC(F)(F)F)cc2)cc1CO | 91 to 93 °C
11 | CC[C@H]1CN(c2ccc(-c3ccnc(Nc4cc(OC)c(OC)c(OC)c4)n3)cn2)CCN1 | 82 to 83 °C
12 | O=C(NC1=NN(c2ccc(Cl)c(Cl)c2)CC1)c1ccc(Cl)cc1 | 177 to 178 °C
13 | CC(c1ccncc1Cl)C(O)(Cn1cncn1)c1ccc(F)cc1F (stereo not drawn) | 182 to 184 °C
14 | Cc1n[nH]c(-c2ccncc2)c1-c1ccccc1 | 164 to 165 °C
15 | CC(=O)Nc1cc(C(C)(C)C)nn1C(=NOS(=O)(=O)c1ccc(C)cc1)C(C)CN1C(=O)c2ccccc2C1=O (stereo not drawn) | 170 to 172 °C
16 | Clc1c(NC2=NCCN2)ccc2nsnc12 | 232 to 235 °C
17 | CCOC(=O)c1c(O)c2ccc(C)nc2n(CC)c1=O | 138 to 140 °C
18 | CCNC(=O)n1nc(Oc2ccc([N+](=O)[O-])c(C(F)(F)F)c2)cc1C | 95 to 97 °C
19 | N#Cc1ccc2cc(S)ccc2c1 | 113 to 115 °C
20 | Cc1nc2c(N)nc3ccccc3c2n1CCC1(O)CCCCC1 | > 252 °C
21 | CN(C)c1ccccc1CSC1=NC(=O)NC1(C)C | 160 to 162 °C
22 | CC(C)C(=O)Nc1ccc(C(=O)Nc2ccccc2N)cc1 | 248 °C
23 | COc1ccc(C=Cc2cc(Br)c(OC)c(OC)c2)cc1O | 108 to 109 °C
24 | CCCCc1nc2c(N)nc3ccccc3c2n1CCNC(=S)Nc1ccc(-c2c3ccc(=O)cc-3oc3cc(O)ccc23)c(C(=O)O)c1 | > 245 °C
25 | Cc1ccc2[nH]c3c(cc(-c4cccc(C(=O)N5CCOCC5)c4)c(=O)n3C)c2c1 | 296 to 298 °C

Row | SMILES | melting point
26 | O=S1(=O)N=CN(C2CCCCC2)c2ccc(Cl)cc21 | 209 to 211 °C
27 | Cc1nnc(SCc2ccc(C(=O)N(C)C)cc2)s1 | 75 to 80 °C
28 | Nc1cc2nc(O)c(O)nc2c2c1CCCC2 | > 300 °C
29 | O=S(=O)(c1cccc2ccccc12)c1n[nH]c2ccc(OCC3CCCNC3)cc12 (stereo not drawn) | 168 to 170 °C
30 | N#Cc1nn(-c2c(Cl)cc(-c3ccc(C(F)(F)F)cc3)cc2Cl)c(N)c1SC(F)(F)F | 181 to 184 °C
31 | O=C(NCc1cccnc1)c1cc2ccnc(N(Cc3ccccc3)Cc3ccccc3)c2[nH]1 | 105 to 108 °C
32 | COC(=O)c1ccc(Cn2nc(C(C)(C)C)cc2O)cc1 | 161 to 162 °C
33 | O=C1CCCc2c1c1cccc(F)c1n2Cc1ccc(F)cc1 | 177 to 178 °C
34 | CNc1nc(C)c(C(C)=O)s1 | 164 to 165 °C
35 | COC(=O)C1=C(C)NC(C(OC)OC)=C(C(=O)OC)C1c1cccc([N+](=O)[O-])c1 (stereo not drawn) | 99 to 100 °C
36 | CN(O)C(=N)c1nn(-c2c(Cl)cc(C(F)(F)F)cc2Cl)c(N)c1S(=O)C(F)(F)F (stereo not drawn) | 187 to 191 °C
37 | COc1ccccc1CN=C1C2CCN(CC2)C1C(c1ccccc1)c1ccccc1 (stereo not drawn) | 154 to 158 °C
38 | CCOC(=O)c1cc(C)nc2c(OCc3ccccc3)cccc12 | 134 °C
39 | O=C1NCc2c1cc1ccc3c(c1c2-c1ccc2c(c1)OCO2)OCC3 | 275 to 277 °C
40 | O=C(O)Cc1cccc(CNC(=O)C2Cc3ccccc3N2S(=O)(=O)c2ccc(-c3cccc(C(F)(F)F)c3)cc2)c1 (stereo not drawn) | 80 °C
41 | CNC(=O)c1cc(-c2ccc(OC)cc2)nn(CC=Cc2ccccc2)c1=O | 160 to 161 °C
42 | C=Cc1noc(C2=CCCN(C(=O)OC(C)(C)C)C2)n1 | 81 to 82 °C
43 | O=C1OC(=O)C2CCCC1C2 | 138 to 140 °C
44 | Nc1nc(N)c(-c2cccc(Cl)c2Cl)c(CO)n1 | 173 to 176 °C
45 | Cn1c(-c2ccccc2)c(C2=CCC(C(=O)O)CC2)c2ccccc21 (stereo not drawn) | 171 to 172 °C
46 | COC(=O)C1c2ccccc2N(C)c2ccc(Cl)cc21 (stereo not drawn) | 166 °C
47 | C=CCC1(C(C)(C)C(=O)OCC)C(=O)NC(=O)NC1=O | 112 to 114 °C
48 | Cc1cc(C)c(C2C(=O)OC3(CCN(N(C)C)CC3)C2=O)c(C)c1 (stereo not drawn) | > 200 °C
49 | CN1CCN(C(=O)c2c(N3CCN(C(=O)c4ccco4)CC3)n(-c3ccccc3)c3ccccc23)CC1 | 180 to 181 °C
50 | CCN(CC)c1nc(C(F)(F)C(F)(F)F)nn1-c1c(Cl)cc(Cl)cc1Cl | 66 to 70 °C

Row | SMILES | melting point
51 | Cc1cc(C2CC2)nc(NC(=O)NS(=O)(=O)c2cccc3c2OS(=O)(=O)C(C)C3)n1 (stereo not drawn) | 216 to 217 °C
52 | C[C@H]1[C@H](O)C(F)(F)C(=O)N1c1ccc(C#N)c(Cl)c1 | 133 to 139 °C
53 | CC(CF)(CF)C(=O)C(Oc1ccc(Cl)cc1)n1cnnc1 (stereo not drawn) | 119 to 122 °C
54 | COC(CN(C(=O)C(C)C)C(C(=O)O)c1ccccc1)OC (stereo not drawn) | 147 to 149 °C
55 | CC1(C)CCCc2ccc(CC#Cc3ccc(C(=O)O)c(O)c3)cc21 | 185 to 187 °C
56 | COC(=O)CCC(=O)c1ccc(NC(=O)c2ccc(C)cc2)cc1 | 192 to 195 °C
57 | CC[C@H](C)[C@@H]1NC(=S)c2ccccc2/C1=C/C(=O)OC | 193 to 196 °C
58 | O=C1NCC(Cc2cccc(F)c2)O1 (stereo not drawn) | 77 to 78 °C
59 | CS(=O)(=O)OCN1C=NN(c2c(Cl)cc(C(F)(F)F)cc2Cl)C1 | 96 to 97 °C
60 | COC(=O)CC1c2cc(N(C)C)ccc2N(C(C)=O)C1C (stereo not drawn) | 122 °C
61 | CN(C)c1ccc(/C=C/c2ccccc2F)cc1 | 124 to 126 °C
62 | COC(=O)c1ccc(C(F)(F)F)nc1S(=O)(=O)NC(=O)Nc1nc(OC)cc(OC)n1 | 130 to 137 °C
63 | Clc1ncc(Cl)c(NC2CCCCC2)n1 | 93 to 94 °C
64 | CC(C)c1nccn1-c1nc(Cl)nc2nc[nH]c12 | 268 °C
65 | Nc1ncc2ncn(OCC(O)CO)c2n1 (stereo not drawn) | 183 to 185 °C
66 | Cc1ccc(-c2nnc(N3CCC(C)CC3)nc2-c2ccc(C)cc2)cc1 | 140 to 142 °C
67 | CC1=C(C(=O)OCCCl)C(c2cccc3c(=O)c(C)c(-c4ccccc4)oc23)C(C(=O)OC(C)C)=C(C)N1 (stereo not drawn) | 235 to 237 °C
68 | Fc1ccc(-c2[nH]nc(C3=CCN4CCCC4C3)c2-c2ccncc2)cc1 (stereo not drawn) | 209 to 214 °C
69 | COC(=O)c1ccc(F)c2c1OCC=C2 | 65 to 67 °C
70 | CCNS(=O)(=O)c1ccc(C2=C(c3cccc(F)c3)C(=O)C(C)(C)O2)cc1 | 113 to 114 °C
71 | CCCCCCCCCCCCCCCCCCNC(=O)c1cc(O)cc(O)c1 | 114 to 117 °C
72 | CNc1ccc(OC)cc1[N+](=O)[O-] | 93 to 94 °C
73 | O=C(C1CCCCC1)N1CC(=O)N2CCOc3ccccc3C2C1 (stereo not drawn) | 92 to 93 °C
